Source: the NIST ThermoML archive (doi:10.1016/j.jct.2013.09.024)
± gives the expanded uncertainty stated by the source.

Assays:
[1] = Liquid, Vibrating tube method
[2] = xn = mol fraction of the nth substance listed; details: Liquid, Vibrating tube method, x2 = 0

Q: What does the source list for CC1(C)C(=O)[C@]2(C)CC[C@H]1C2 [(-)-fenchone]?
A: mass density ([1]; 283.15 K, 101 kPa): 953.27 ± 0.12 kg/m3; mass density ([1]; 283.15 K, 20000 kPa): 965.6 ± 1 kg/m3; mass density ([1]; 283.15 K, 25000 kPa): 968.5 ± 1 kg/m3; mass density ([1]; 283.15 K, 30000 kPa): 971.3 ± 1 kg/m3; mass density ([1]; 283.15 K, 35000 kPa): 974 ± 1 kg/m3; mass density ([1]; 283.15 K, 40000 kPa): 976.6 ± 1 kg/m3; mass density ([1]; 298.15 K, 101 kPa): 940.67 ± 0.12 kg/m3; mass density ([1]; 298.15 K, 20000 kPa): 954 ± 1 kg/m3; mass density ([1]; 298.15 K, 25000 kPa): 957.1 ± 1 kg/m3; mass density ([1]; 298.15 K, 30000 kPa): 960 ± 1 kg/m3; mass density ([1]; 298.15 K, 35000 kPa): 962.9 ± 1 kg/m3; mass density ([1]; 298.15 K, 40000 kPa): 965.7 ± 1 kg/m3; mass density ([1]; 313.15 K, 101 kPa): 928.04 ± 0.12 kg/m3; mass density ([1]; 313.15 K, 20000 kPa): 942.3 ± 1 kg/m3; mass density ([1]; 313.15 K, 25000 kPa): 945.6 ± 1 kg/m3; mass density ([1]; 313.15 K, 30000 kPa): 948.7 ± 1 kg/m3; mass density ([1]; 313.15 K, 35000 kPa): 951.8 ± 1 kg/m3; mass density ([1]; 313.15 K, 40000 kPa): 954.7 ± 1 kg/m3; mass density ([1]; 328.15 K, 101 kPa): 915.39 ± 0.13 kg/m3; mass density ([1]; 328.15 K, 20000 kPa): 930.8 ± 1 kg/m3; mass density ([1]; 328.15 K, 25000 kPa): 934.2 ± 1 kg/m3; mass density ([1]; 328.15 K, 30000 kPa): 937.6 ± 1 kg/m3; mass density ([1]; 328.15 K, 35000 kPa): 940.9 ± 1 kg/m3; mass density ([1]; 328.15 K, 40000 kPa): 944 ± 1 kg/m3

Q: What does the source list for CCO [ethanol] + CC1(C)C(=O)[C@]2(C)CC[C@H]1C2?
A: mass density ([2]; 283.15 K, 101 kPa): 797.99 ± 0.13 kg/m3; mass density ([2]; 283.15 K, 20000 kPa): 813.3 ± 1 kg/m3; mass density ([2]; 283.15 K, 25000 kPa): 816.8 ± 1 kg/m3; mass density ([2]; 283.15 K, 30000 kPa): 820.2 ± 1 kg/m3; mass density ([2]; 283.15 K, 35000 kPa): 823.4 ± 1.1 kg/m3; mass density ([2]; 283.15 K, 40000 kPa): 826.6 ± 1.1 kg/m3; mass density ([2]; 298.15 K, 101 kPa): 785.2 ± 0.13 kg/m3; mass density ([2]; 298.15 K, 20000 kPa): 801.7 ± 1 kg/m3; mass density ([2]; 298.15 K, 25000 kPa): 805.4 ± 1 kg/m3; mass density ([2]; 298.15 K, 30000 kPa): 809 ± 1.1 kg/m3; mass density ([2]; 298.15 K, 35000 kPa): 812.5 ± 1.1 kg/m3; mass density ([2]; 298.15 K, 40000 kPa): 815.8 ± 1.1 kg/m3; mass density ([2]; 313.15 K, 101 kPa): 772.15 ± 0.14 kg/m3; mass density ([2]; 313.15 K, 20000 kPa): 790.1 ± 1 kg/m3; mass density ([2]; 313.15 K, 25000 kPa): 794.1 ± 1 kg/m3; mass density ([2]; 313.15 K, 30000 kPa): 797.8 ± 1.1 kg/m3; mass density ([2]; 313.15 K, 35000 kPa): 801.5 ± 1.1 kg/m3; mass density ([2]; 313.15 K, 40000 kPa): 805 ± 1.1 kg/m3; mass density ([2]; 328.15 K, 101 kPa): 758.71 ± 0.14 kg/m3; mass density ([2]; 328.15 K, 20000 kPa): 778.1 ± 1 kg/m3; mass density ([2]; 328.15 K, 25000 kPa): 782.4 ± 1.1 kg/m3; mass density ([2]; 328.15 K, 30000 kPa): 786.4 ± 1.1 kg/m3; mass density ([2]; 328.15 K, 35000 kPa): 790.3 ± 1.1 kg/m3; mass density ([2]; 328.15 K, 40000 kPa): 794.1 ± 1.1 kg/m3

Q: For CCO [ethanol], which mass density ([1]; 283.15 K, 101 kPa) is on record?
A: 797.99 ± 0.13 kg/m3

Q: And the mass density ([1]; 283.15 K, 20000 kPa)?
A: 813.3 ± 1 kg/m3

Q: What about the mass density ([1]; 283.15 K, 25000 kPa) of the same compound?
A: 816.8 ± 1 kg/m3

Q: What about the mass density ([1]; 283.15 K, 30000 kPa) of the same compound?
A: 820.2 ± 1 kg/m3

Q: What about the mass density ([1]; 283.15 K, 35000 kPa) of the same compound?
A: 823.4 ± 1.1 kg/m3

Q: What about the mass density ([1]; 283.15 K, 40000 kPa) of the same compound?
A: 826.6 ± 1.1 kg/m3

Q: What about the mass density ([1]; 298.15 K, 101 kPa) of the same compound?
A: 785.2 ± 0.13 kg/m3

Q: What about the mass density ([1]; 298.15 K, 20000 kPa) of the same compound?
A: 801.7 ± 1 kg/m3

Q: What about the mass density ([1]; 298.15 K, 25000 kPa) of the same compound?
A: 805.4 ± 1 kg/m3

Q: What about the mass density ([1]; 298.15 K, 30000 kPa) of the same compound?
A: 809 ± 1.1 kg/m3

Q: And the mass density ([1]; 298.15 K, 35000 kPa)?
A: 812.5 ± 1.1 kg/m3

Q: And the mass density ([1]; 298.15 K, 40000 kPa)?
A: 815.8 ± 1.1 kg/m3

Q: And the mass density ([1]; 313.15 K, 101 kPa)?
A: 772.15 ± 0.14 kg/m3

Q: And the mass density ([1]; 313.15 K, 20000 kPa)?
A: 790.1 ± 1 kg/m3

Q: What about the mass density ([1]; 313.15 K, 25000 kPa) of the same compound?
A: 794.1 ± 1 kg/m3

Q: And the mass density ([1]; 313.15 K, 30000 kPa)?
A: 797.8 ± 1.1 kg/m3

Q: What about the mass density ([1]; 313.15 K, 35000 kPa) of the same compound?
A: 801.5 ± 1.1 kg/m3

Q: What about the mass density ([1]; 313.15 K, 40000 kPa) of the same compound?
A: 805 ± 1.1 kg/m3

Q: And the mass density ([1]; 328.15 K, 101 kPa)?
A: 758.71 ± 0.14 kg/m3

Q: And the mass density ([1]; 328.15 K, 20000 kPa)?
A: 778.1 ± 1 kg/m3

Q: And the mass density ([1]; 328.15 K, 25000 kPa)?
A: 782.4 ± 1.1 kg/m3

Q: And the mass density ([1]; 328.15 K, 30000 kPa)?
A: 786.4 ± 1.1 kg/m3

Q: What about the mass density ([1]; 328.15 K, 35000 kPa) of the same compound?
A: 790.3 ± 1.1 kg/m3

Q: And the mass density ([1]; 328.15 K, 40000 kPa)?
A: 794.1 ± 1.1 kg/m3
